Data reported in the supplement of paper PMC6723410.

Tested on: GUMC-403
Assay: viability at highest tested concentration (max response) relative to DMSO (% of DMSO control); higher = less cytotoxic
Details: library / dose series: MIPE library, 11-point 1:3 dilution, 48 h
Summary of the method: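 Each figure stands for viability at the highest tested concentration compared with vehicle control. It was measured by CellTiter-Glo luminescence on a ViewLux after 48 h of exposure to 23 nL of pinned compound, with vehicle wells taken as 100% and empty wells as 0%. The cells were patient-derived GUMC-403 papilloma cells grown by conditional reprogramming, plated at 700/well in 5 μL F + Y medium in 1536-well plates.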

## N#C[C@H](O[C@@H]1O[C@H](CO[C@@H]2O[C@H](CO)[C@@H](O)[C@H](O)[C@H]2O)[C@@H](O)[C@H](O)[C@H]1O)c1ccccc1
Top concentration 46.1 µM
  viability: 98.6

## Cc1ccc2c(=O)c3cccc(CC(=O)O)c3oc2c1C
Top concentration 46.1 µM
  viability: 6.71

## Fc1cc(-c2cccc3ncc(-c4cnn(C5CCNCC5)c4)nc23)cc(F)c1CN1CCOCC1
Top concentration 46.1 µM
  viability: 108

## Cc1ccccc1C(=O)Nc1ccc(C(=O)N2CCCC(O)c3cc(Cl)ccc32)c(C)c1 (stereo not given)
Top concentration 46.1 µM
  viability: 108

## Cc1cc(NC(=O)Nc2ccc(N(C)C)cc2)c2cc(F)cc(F)c2n1
Top concentration 46.1 µM
  viability: 124

## COc1cc(Cl)cn2c(-c3cccc(NC4CNC4)n3)cnc12
Top concentration 46.1 µM
  viability: 133

## C=CC(=O)Nc1cccc(Sc2nc(Nc3ccc(N4CCN(C)CC4)cc3)ncc2Cl)c1
Top concentration 46.1 µM
  viability: 70.3

## Nc1nccc(-c2ccc3noc(-c4ccc(Cl)cc4)c3c2)n1
Top concentration 46.1 µM
  viability: 80.1

## CC1CCN(c2cc(N3CCN(C)CC3)ccc2NC(=O)c2cc(C#N)c[nH]2)CC1
Top concentration 46.1 µM
  viability: 116

## CCn1c(=O)c2c(nc(/C=C/c3ccc(OC)c(OC)c3)n2C)n(CC)c1=O
Top concentration 46.1 µM
  viability: 134

## CCN1C[C@]2(OC(=O)c3ccccc3NC(C)=O)CC[C@H](OC)[C@@]34[C@@H]2C[C@@H]([C@@H]13)[C@@]1(O)C[C@H](OC)[C@H]2C[C@@H]4[C@]1(O)[C@H]2OC
Top concentration 46.1 µM
  viability: 139

## CC(C)N(CCNC(=O)CN1CCCC1=O)C(C)C
Top concentration 46.1 µM
  viability: 103

## Fc1ccc(Cl)cc1-c1nc(Nc2ccncc2)c2nccnc2n1
Top concentration 46.1 µM
  viability: 128

## O=C(O)/C=C/c1ccc(Cn2ccnc2)cc1
Top concentration 46.1 µM
  viability: 124

## COc1c(Cl)cc2c([nH]c3cnccc32)c1NC(=O)c1cccnc1C
Top concentration 46.1 µM
  viability: 96.7

## CC[C@@H]1C(=O)N(C)c2cnc(Nc3ccc(C(=O)NC4CCN(C)CC4)cc3OC)nc2N1C1CCCC1
Top concentration 46.1 µM
  viability: 41.8

## CC(=O)NCCC(=O)N[C@@H](CCC(N)=O)C(=O)N[C@@H](CO)C(=O)N[C@@H](CCC(N)=O)C(=O)N[C@@H](CCC(N)=O)C(=O)N[C@H](C(=O)N[C@@H](Cc1ccccc1)C(=O)N[C@]1(C)CCCCCC/C=C\CCC[C@@](C)(C(=O)N[C@@H](CCC(N)=O)C(=O)N[C@@H](CC(N)=O)C(N)=O)NC(=O)[C@H](CC(C)C)NC(=O)[C@H](CC(C)C)NC(=O)[C@@H](CCCNC(=N)N)NC(=O)[C@H](Cc2c[nH]c3ccccc23)NC(=O)[C@H](CC(C)C)NC(=O)[C@H](CC(N)=O)NC1=O)[C@H](C)O
Top concentration 46.1 µM
  viability: 99.6

## COc1cc(-c2nn(C3CCC(N4CCN(C(C)=O)CC4)CC3)c3ncnc(N)c23)ccc1NC(=O)c1cc2ccccc2n1C (stereo not given)
Top concentration 46.1 µM
  viability: 78.2

## CCNC(=O)Nc1ccc(Oc2ncnc(N)c2/C=N/OC)cc1Cl
Top concentration 46.1 µM
  viability: 109

## Cc1cn2c(-c3cn[nH]c3)cnc2c(Nc2ccc(C(=O)N3CCNCC3)cc2F)n1
Top concentration 46.1 µM
  viability: 60.9

## O=C(CCCCCCNC(=O)c1cnc(N(c2ccccc2)c2ccccc2)nc1)NO
Top concentration 46.1 µM
  viability: 117

## C[C@]\12CCC(=O)\C=C1[C@@H]3C[C@@H]3[C@@H]4[C@@H]2CC[C@@]5(C)[C@H]4[C@@H]6C[C@@H]6[C@@]57CCC(=O)O7
Top concentration 46.1 µM
  viability: 89.8

## CC(C)(C)NC(=O)[C@@H]1CN(Cc2cccnc2)CCN1C[C@@H](O)C[C@@H](Cc1ccccc1)C(=O)N[C@H]1c2ccccc2C[C@H]1O.O=S(=O)(O)O
Top concentration 46.1 µM
  viability: 130

## Cc1cccc(C)c1NC(=O)CN1CCCC1=O
Top concentration 46.1 µM
  viability: 106

## N#C/C(=C1/Nc2ccccc2S1)c1ccnc(OCc2ccc(CN3CCOCC3)cc2)n1
Top concentration 46.1 µM
  viability: 91.3

## COC[C@H]1OC(=O)C2=COC3=C2[C@@]1(C)\C4=C(C5CCC(=O)[C@@]5(C)C[C@H]4OC(C)=O)/C3=O (stereo not given in full)
Top concentration 46.1 µM
  viability: 88.9

## OCc1ccc(-c2ccc(-c3ccc(CO)s3)o2)s1
Top concentration 46.1 µM
  viability: 117

## CC(=O)N[C@H]1[C@H](O[C@@H]2c3ccc(c(Cl)c3)Oc3cc4cc(c3O[C@@H]3O[C@H](CO)[C@@H](O)[C@H](O)[C@H]3NC(=O)CCCCCCCC(C)C)Oc3ccc(cc3Cl)C[C@H]3NC(=O)[C@H](N)c5ccc(O)c(c5)Oc5cc(O)cc(c5)[C@H](NC3=O)C(=O)N[C@H]4C(=O)N[C@H]3C(=O)N[C@@H]2C(=O)N[C@@H](C(=O)O)c2cc(O)cc(O[C@H]4O[C@H](CO)[C@@H](O)[C@H](O)[C@@H]4O)c2-c2cc3ccc2O)O[C@H](CO)[C@@H](O)[C@@H]1O
Top concentration 46.1 µM
  viability: 121

## OC[C@H]1OCC(O1)[N@@]2C=CC(N)=NC2=O (stereo not given in full)
Top concentration 46.1 µM
  viability: 114

## O=C1C[C@@H](c2ccc(O)cc2)Oc2cc(O)cc(O)c21
Top concentration 46.1 µM
  viability: 113

## O=C1Nc2ccc(Cl)cc2C(C#CC2CC2)(C(F)(F)F)O1 (stereo not given)
Top concentration 46.1 µM
  viability: 95.5

## COc1ccc(CC2SC(=O)NC2=O)cc1C(=O)NCc1ccc(C(F)(F)F)cc1 (stereo not given)
Top concentration 46.1 µM
  viability: 95.6

## CN(C)Cc1ccc(-c2nc3cccc4c3n2CCNC4=O)cc1
Top concentration 46.1 µM
  viability: 88.8

## O=C1c2ccccc2-c2n[nH]c3cccc1c23
Top concentration 46.1 µM
  viability: 99.2

## C[C@]12CC[C@@H]3c4ccc(OC(=O)N(CCCl)CCCl)cc4CC[C@H]3[C@@H]1CC[C@@H]2OP(=O)([O-])[O-].[Na+].[Na+]
Top concentration 46.1 µM
  viability: 124

## COc1cc2c(NC3CCN(C(C)C)CC3)nc(C3CCCCC3)nc2cc1OCCCN1CCCC1
Top concentration 46.1 µM
  viability: 82.3

## CCOC(=O)[C@H](CCc1ccccc1)N[C@@H](C)C(=O)N1CCC[C@H]1C(=O)O
Top concentration 46.1 µM
  viability: 125

## OC[C@H](Cc1ccccc1)Nc1nc(Oc2ccc3c(c2)CCC3)nc2c1ncn2Cc1ccc(-c2ccccc2)cc1
Top concentration 46.1 µM
  viability: 101

## Clc1ccccc1CN1CCc2sccc2C1
Top concentration 46.1 µM
  viability: 141

## O=C(O)COCCN1CCN(C(c2ccccc2)c2ccc(Cl)cc2)CC1 (stereo not given)
Top concentration 46.1 µM
  viability: 117

## CCOC(CN1C(=O)[C@](CC(=O)Nc2ccc(C)cc2)(NC(=O)Nc2ccc(C)cc2)c2ccccc21)OCC
Top concentration 46.1 µM
  viability: 129

## O=C(c1cncc(Br)c1)N1CCC(N2CCCC2)CC1
Top concentration 46.1 µM
  viability: 115

## CCC(=O)N1CCN(CC1)C2=C(C=C(C=C2)N3C(=O)\C=C/C4=C3C5=CC(=CC=C5N=C4)C6=CN=C7C=CC=CC7=C6)C(F)(F)F
Top concentration 46.1 µM
  viability: 73.8

## CN(C)CCOC(c1ccccc1)c1ccccc1
Top concentration 46.1 µM
  viability: 120

## CC(C)n1c(/C=C/[C@H](O)C[C@H](O)CC(=O)O)c(-c2ccc(F)cc2)c2ccccc21
Top concentration 46.1 µM
  viability: 103

## CN1CCN2c3ccccc3Cc3ccccc3C2C1 (stereo not given)
Top concentration 46.1 µM
  viability: 106

## CCN(CC)CCCCNc1ncc2cc(-c3cc(OC)cc(OC)c3)c(NC(=O)NC(C)(C)C)nc2n1
Top concentration 46.1 µM
  viability: 128

## Cc1[nH]c(/C=C2\C(=O)Nc3ccccc32)c(C)c1CCC(=O)O
Top concentration 46.1 µM
  viability: 98.9

## CNc1nc(Nc2ccc(C(=O)N3CCOCC3)cc2OC)ncc1Cl
Top concentration 46.1 µM
  viability: 108

## CC(=O)O/N=C1/C(=C2\C(=O)Nc3cc(Br)ccc32)Nc2ccccc21
Top concentration 46.1 µM
  viability: 122

## COC(=O)Nc1nc2cc(C(=O)c3cccs3)ccc2[nH]1
Top concentration 46.1 µM
  viability: 105

## CN1CCN(CCCN2c3ccccc3Sc3ccc(Cl)cc32)CC1.O=C(O)/C=C\C(=O)O.O=C(O)/C=C\C(=O)O
Top concentration 46.1 µM
  viability: 95.8

## CN(C)CCC=C1C2=C(C=CC=C2)\C=C/C3=C1C=CC=C3
Top concentration 46.1 µM
  viability: 115

## CC(=O)N1CCN(c2ccc(OC[C@H]3CO[C@](Cn4ccnc4)(c4ccc(Cl)cc4Cl)O3)cc2)CC1
Top concentration 46.1 µM
  viability: 104

## Cc1cc(Nc2cc(N3CCN(C)CC3)nc(/C=C/c3ccccc3)n2)n[nH]1
Top concentration 92.2 µM
  viability: 54.1
